# Assay results reported in patent US20190185865A1, “USE OF PROKARYOTIC TRANSCRIPTIONAL ACTIVATORS AS METABOLITE BIOSENSORS IN EUKARYOTIC CELLS” (Danmarks Tekniske Universitet, priority 2016, published 2019).
# Several values for one entry are separate records, joined by “and”; a condition that tells them apart may be missing. Equal values may be shown once.
# Legend:
# yeast cells = test: Growth of yeast cells in liquid medium containing CCM; type: cell-based, Saccharomyces cerevisiae; conditions: pH 4.5
# Description: FIG. 9 (a) Uptake of cis,cis-muconic acid (CCM) at pH 4.5 by S. cerevisiae cells following 24 h of growth. (b) Representative growth curves of yeast cells in liquid medium containing different concentrations of CCM. OD values were determined at 1-h intervals over 25-h period. For both (a) and (b) data display means±s.d. from three (n=3) biological replicate cultivations.
# S. cerevisiae cells = test: Transport assay: uptake of CCM by yeast cells (LC-MS); type: cell-based, Saccharomyces cerevisiae; conditions: pH 4.5, 24 h
# Description: Overnight grown CEN.PK113-5A cells were diluted (OD600=0.1) into SC-HIS-LEU medium with or without 1.4 mM (200 mg/L) CCM. Media samples were taken at both 0 h and 24 h, while samples for measuring cellular lysates (10^8 cells) were harvested at 24 h. For quantification of CCM by LC-MS, cultures were harvested by centrifugation. For extracellular CCM quantification the supernatant was centrifuged twice and filtered (0.2 μm) before analysis. For intracellular CCM quantification harvested pellets were washed twice in ice-cold isotonic saline solution (0.9% NaCl) and centrifuged at 5,000×g before cells were extracted in an aqueous 0.1% formic acid solution and sonicated for 15 min. Following this, samples were centrifuged at 13,000×g and supernatants filtered (0.2 μm) prior to analysis. LC-MS data was collected on EVOQ EliteTriple Quadrupole Mass Spectrometer system coupled with an Advance UHPLC (Bruker). Samples were held at 4° C. during the analysis. A 1 μL sample was injected onto a ACQUITY HSS T3 C18 UHPLC column (Waters), with a 1.8 μm particle size and 2.1×100 mm dimensioning. The column was held at a temperature of 30° C. […] Two transitions were chosen in negative Multiple Reaction Monitoring (MRM) mode for quantification of CCM: m/z 141.70-96.80 (quantification transition) and m/z 141.70-53.1 (confirmation transition). […]
# BenM^H110R, F211V, Y286N = target: T1, BenM^H110R, F211V, Y286N (Acinetobacter baylyi, UniProt O68014, F211V/H110R/Y286N); test: CCM biosensor output versus CCM titers in CCM-producing yeast strains (HPLC, flow cytometry); type: cell-based
# T1 construct: expressed in transfected cells; host or cells: Saccharomyces cerevisiae; centromeric plasmid (gap repair) or chromosomal integration, REV1p
# Description: The CCM production strains were cultivated in 24-deep well plate with air-penetrable lids (EnzyScreen) to test for the production of CCM. Colonies from the individual strain were inoculated in 1 mL synthetic drop-out medium (Sigma-Aldrich), selecting for URA, HIS and LEU markers, and grown at 30° C. with 250 rpm agitation at 5 cm orbit cast for 24 h. 300 μL of the overnight cultures were used to inoculate 3 mL mineral medium (pH 4.5) in 24-deep well plate and incubated for 24-72 h at the same conditions as above. Experiments were performed in triplicates. The culture broth was centrifuged 3,500×rpm and the supernatant analyzed for CCM concentration using HPLC. For this purpose, samples were analyzed for 45 min using Aminex HPX-87H ion exclusion column with a 1 mM H2SO4 flow of 0.6 mL/min. The temperature of the column was 60° C. Refractive index and UV detectors (Dionex) were used for detection of CCM (250 nm). CCM concentrations were quantified by comparison with the spectrum of the standards. […] Naringenin was quantified using a quadratic calibration curve with authentic standards ranging from 0.039 mg/I to 20 mg/I using QuanLynx software (Waters).
# Events were analyzed using FlowJo software (TreeStar Inc.). […]
# [1] = Solubility in growth medium; type: physicochemical; conditions: aqueous buffer, read-out: highest soluble CCM concentration
# T1 sequence (O68014 whole entry H110R/F211V/Y286N): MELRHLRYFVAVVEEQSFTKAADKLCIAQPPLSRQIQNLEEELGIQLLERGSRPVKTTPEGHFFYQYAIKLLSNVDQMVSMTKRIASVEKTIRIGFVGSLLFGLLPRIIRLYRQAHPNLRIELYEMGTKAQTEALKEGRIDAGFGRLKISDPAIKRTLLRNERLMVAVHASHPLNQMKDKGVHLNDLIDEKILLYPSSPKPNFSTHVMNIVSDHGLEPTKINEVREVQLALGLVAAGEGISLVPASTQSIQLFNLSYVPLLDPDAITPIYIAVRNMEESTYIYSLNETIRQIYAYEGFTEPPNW
smiles,measurement,setting,value
"O=C(O)/C=C\C=C/C(=O)O [CCM, cis, cis-muconic acid]",growth of yeast in presence of CCM,yeast cells,without any growth defects
same,uptake of CCM by yeast,S. cerevisiae cells,directly taken up
same,titers at which GFP outputs were saturated,"BenM^H110R, F211V, Y286N; 72 h of cultivation",> 1.41 mM and > 200 mg/L
same,correlation (r) between GFP output and CCM production titers,"BenM^H110R, F211V, Y286N; six CCM production strains and null strain, 24 h",0.98
same,solubility,[1],1400 µM and 200 µg/mL
